What all share (test): Kinase panel (mobility shift)
Assay type in all cases: biochemical

One assay concerns the target SRC (Homo sapiens, UniProt P12931). Put shortly:
(§1)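 Compound at 5 um + kinase + fluor-labeled substrate, standardized mix; rxn stopped; electrophoretic separation of product/substrate on chip; activity = product vs substrate peak fluorescence. Bins A ≥95%, B 90-94%, C 80-89%.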

The target of a further assay is RIPK2 (Homo sapiens, UniProt O43353). Put shortly: as §1
Another assay deals with T1, EPH-A6 (Homo sapiens, UniProt Q9UF33).
T1 sequence (Q9UF33 23-1036): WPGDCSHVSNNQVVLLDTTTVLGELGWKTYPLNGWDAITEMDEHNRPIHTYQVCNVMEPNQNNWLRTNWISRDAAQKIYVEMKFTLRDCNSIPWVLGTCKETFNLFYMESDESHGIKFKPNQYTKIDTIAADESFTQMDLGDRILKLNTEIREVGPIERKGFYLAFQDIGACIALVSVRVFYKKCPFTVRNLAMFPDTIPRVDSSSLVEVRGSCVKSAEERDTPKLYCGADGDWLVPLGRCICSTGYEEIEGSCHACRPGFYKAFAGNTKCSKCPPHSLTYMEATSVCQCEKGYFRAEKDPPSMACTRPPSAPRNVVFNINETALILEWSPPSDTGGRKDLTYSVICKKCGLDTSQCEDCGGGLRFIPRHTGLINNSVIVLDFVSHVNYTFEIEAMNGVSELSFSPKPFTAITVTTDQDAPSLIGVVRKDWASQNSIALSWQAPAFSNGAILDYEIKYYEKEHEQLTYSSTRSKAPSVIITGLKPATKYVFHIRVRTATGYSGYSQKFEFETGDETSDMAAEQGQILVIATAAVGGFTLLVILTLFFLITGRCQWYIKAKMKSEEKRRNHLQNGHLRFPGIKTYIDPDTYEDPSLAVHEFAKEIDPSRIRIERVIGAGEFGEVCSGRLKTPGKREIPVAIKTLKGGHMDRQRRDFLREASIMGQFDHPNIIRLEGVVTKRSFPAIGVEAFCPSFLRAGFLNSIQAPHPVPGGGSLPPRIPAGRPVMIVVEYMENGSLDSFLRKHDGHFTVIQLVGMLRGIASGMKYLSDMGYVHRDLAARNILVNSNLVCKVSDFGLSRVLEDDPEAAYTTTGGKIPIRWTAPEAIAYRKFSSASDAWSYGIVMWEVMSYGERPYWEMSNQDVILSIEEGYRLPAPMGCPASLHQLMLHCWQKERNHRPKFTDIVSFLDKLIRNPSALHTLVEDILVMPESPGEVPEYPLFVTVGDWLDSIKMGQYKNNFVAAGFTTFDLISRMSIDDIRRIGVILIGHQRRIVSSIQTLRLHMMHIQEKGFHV
Put shortly: as §1

In another assay the target is T2, MER (Homo sapiens, UniProt Q12866).
T2 sequence (Q12866 21-999): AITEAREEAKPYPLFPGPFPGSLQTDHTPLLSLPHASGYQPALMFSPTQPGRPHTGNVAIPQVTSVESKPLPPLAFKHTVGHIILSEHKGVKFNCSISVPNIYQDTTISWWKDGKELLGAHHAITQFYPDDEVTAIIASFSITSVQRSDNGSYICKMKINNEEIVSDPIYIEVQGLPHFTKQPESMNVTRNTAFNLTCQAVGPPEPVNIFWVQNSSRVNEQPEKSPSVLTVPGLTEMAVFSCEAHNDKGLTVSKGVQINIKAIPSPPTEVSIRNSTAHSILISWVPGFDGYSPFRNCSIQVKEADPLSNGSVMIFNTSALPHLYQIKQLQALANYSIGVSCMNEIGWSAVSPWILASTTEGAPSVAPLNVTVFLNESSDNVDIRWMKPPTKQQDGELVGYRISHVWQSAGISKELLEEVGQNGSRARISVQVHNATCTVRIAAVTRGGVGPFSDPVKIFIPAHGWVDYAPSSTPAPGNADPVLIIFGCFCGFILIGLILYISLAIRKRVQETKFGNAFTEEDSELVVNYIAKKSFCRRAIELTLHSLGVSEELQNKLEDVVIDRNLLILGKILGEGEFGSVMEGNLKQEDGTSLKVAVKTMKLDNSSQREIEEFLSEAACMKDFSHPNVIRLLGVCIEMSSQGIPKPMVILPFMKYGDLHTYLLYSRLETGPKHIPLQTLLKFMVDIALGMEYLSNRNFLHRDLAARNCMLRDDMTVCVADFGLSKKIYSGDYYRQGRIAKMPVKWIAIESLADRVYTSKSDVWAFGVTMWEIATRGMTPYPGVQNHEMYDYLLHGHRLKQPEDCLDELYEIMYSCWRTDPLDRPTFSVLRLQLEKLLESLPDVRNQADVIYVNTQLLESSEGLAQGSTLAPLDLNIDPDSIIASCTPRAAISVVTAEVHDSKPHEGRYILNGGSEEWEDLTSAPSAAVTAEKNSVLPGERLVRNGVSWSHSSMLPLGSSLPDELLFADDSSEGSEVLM
In outline:
as §1

The next assay has as its target P38-a (Homo sapiens, UniProt Q16539). The settings on record: at 5 um. In outline: as §1
The next assay deals with PDGFR-b (Homo sapiens, UniProt P09619). In outline:
as §1

Another assay deals with EPH-A5 (Homo sapiens, UniProt P54756). The settings on record: at 5 um. In outline: as §1

A word on the inhibition: it is the relative decrease from the control value, in per cent.

Chain of RIPK2 (O43353 whole entry, species assumed): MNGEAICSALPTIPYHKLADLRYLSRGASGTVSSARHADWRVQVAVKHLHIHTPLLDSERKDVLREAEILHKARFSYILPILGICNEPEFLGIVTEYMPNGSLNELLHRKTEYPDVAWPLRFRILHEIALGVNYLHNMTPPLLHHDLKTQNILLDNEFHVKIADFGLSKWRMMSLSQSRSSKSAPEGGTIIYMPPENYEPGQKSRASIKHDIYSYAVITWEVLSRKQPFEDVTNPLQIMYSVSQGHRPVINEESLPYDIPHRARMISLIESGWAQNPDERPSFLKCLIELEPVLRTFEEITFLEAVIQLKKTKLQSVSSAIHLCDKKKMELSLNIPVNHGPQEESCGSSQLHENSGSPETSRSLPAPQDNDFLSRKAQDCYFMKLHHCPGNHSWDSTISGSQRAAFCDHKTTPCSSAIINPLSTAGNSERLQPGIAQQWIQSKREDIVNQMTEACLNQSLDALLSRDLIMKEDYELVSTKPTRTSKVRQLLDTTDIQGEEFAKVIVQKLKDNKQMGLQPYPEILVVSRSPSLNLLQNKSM
Chain of P38-a (Q16539 whole entry): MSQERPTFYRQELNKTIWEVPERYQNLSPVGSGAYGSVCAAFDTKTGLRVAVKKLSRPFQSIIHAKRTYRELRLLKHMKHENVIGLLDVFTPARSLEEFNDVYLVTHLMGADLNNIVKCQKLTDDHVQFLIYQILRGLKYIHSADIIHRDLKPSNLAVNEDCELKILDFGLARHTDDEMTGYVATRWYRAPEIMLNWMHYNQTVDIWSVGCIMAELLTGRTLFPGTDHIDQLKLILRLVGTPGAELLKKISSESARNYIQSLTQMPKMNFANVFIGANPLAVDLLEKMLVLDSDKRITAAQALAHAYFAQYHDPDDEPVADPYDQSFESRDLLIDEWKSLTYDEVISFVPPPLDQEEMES
Chain of SRC (P12931 whole entry, species assumed): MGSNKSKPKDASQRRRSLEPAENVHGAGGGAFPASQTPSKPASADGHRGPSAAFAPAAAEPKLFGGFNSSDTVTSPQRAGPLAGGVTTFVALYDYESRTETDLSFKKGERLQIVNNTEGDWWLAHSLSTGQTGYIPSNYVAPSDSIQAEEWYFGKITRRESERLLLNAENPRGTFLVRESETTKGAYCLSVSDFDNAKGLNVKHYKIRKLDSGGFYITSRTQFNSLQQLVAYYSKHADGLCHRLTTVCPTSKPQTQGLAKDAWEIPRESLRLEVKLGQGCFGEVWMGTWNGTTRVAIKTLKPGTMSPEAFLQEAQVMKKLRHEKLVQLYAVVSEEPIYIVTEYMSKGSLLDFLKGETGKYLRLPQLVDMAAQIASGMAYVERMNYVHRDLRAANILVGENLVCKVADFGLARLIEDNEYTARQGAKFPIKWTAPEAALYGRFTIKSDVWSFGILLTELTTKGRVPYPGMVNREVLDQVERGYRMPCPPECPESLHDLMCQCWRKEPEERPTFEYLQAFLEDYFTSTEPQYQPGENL
Chain of EPH-A5 (P54756 25-1037, species assumed): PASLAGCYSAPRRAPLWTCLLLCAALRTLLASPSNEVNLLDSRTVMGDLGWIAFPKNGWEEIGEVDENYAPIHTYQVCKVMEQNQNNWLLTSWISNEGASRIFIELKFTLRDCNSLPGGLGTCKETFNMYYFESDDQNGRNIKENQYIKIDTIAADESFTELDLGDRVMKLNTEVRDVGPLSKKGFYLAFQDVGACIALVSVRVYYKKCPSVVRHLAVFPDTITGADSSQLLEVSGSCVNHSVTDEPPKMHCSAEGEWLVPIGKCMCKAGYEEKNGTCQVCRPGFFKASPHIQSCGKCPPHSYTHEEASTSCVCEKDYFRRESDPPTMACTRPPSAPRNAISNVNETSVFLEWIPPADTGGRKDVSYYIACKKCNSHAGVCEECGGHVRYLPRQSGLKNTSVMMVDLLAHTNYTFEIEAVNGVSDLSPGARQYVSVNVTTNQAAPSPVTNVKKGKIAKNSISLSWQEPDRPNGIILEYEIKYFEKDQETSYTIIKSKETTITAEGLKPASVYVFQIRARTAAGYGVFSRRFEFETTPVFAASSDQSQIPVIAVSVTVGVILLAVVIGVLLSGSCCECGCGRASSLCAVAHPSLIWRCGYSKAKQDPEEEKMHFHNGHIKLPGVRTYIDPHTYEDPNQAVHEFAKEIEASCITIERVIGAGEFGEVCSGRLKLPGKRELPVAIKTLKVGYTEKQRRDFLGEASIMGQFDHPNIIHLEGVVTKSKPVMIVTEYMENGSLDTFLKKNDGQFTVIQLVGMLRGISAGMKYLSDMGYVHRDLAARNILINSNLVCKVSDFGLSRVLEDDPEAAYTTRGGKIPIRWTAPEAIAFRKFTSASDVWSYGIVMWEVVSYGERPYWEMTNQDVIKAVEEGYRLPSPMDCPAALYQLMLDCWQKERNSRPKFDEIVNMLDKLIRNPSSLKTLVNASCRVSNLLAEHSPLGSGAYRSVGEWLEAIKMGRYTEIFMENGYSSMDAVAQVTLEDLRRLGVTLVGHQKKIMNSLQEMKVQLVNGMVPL
Chain of PDGFR-b (P09619 33-1106, species assumed): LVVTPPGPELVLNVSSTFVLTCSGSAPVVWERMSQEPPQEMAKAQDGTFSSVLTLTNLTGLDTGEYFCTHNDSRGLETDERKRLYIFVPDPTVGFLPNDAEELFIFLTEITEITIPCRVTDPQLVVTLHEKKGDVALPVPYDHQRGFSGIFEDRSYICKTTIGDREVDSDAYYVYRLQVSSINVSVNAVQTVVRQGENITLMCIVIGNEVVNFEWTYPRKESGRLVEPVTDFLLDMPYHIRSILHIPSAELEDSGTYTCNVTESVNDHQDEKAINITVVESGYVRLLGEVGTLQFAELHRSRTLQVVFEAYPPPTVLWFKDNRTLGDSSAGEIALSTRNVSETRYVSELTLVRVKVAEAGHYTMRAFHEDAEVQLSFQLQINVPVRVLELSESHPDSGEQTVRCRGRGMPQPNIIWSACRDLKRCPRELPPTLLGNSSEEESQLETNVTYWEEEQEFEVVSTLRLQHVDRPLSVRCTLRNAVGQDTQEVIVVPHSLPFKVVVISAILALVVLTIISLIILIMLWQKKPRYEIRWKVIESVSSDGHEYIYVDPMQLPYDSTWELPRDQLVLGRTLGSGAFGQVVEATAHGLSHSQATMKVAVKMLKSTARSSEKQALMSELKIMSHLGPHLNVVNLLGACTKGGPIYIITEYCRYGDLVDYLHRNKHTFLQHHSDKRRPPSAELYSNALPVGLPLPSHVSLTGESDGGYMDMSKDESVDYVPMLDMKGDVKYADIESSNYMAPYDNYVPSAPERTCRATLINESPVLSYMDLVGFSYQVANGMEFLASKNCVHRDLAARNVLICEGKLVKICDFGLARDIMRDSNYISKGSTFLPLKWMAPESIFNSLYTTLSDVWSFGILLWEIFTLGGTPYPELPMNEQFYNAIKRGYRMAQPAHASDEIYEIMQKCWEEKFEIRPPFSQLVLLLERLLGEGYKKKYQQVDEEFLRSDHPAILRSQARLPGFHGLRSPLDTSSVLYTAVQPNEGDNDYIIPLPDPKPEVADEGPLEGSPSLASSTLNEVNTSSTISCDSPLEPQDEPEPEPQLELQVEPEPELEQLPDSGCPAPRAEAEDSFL

`CNC(=O)c1ccc(Oc2ccc(NC(=O)c3nc(Cl)oc3-c3ccc(F)cc3)c(F)c2)cn1` [Compound 36]: the inhibition at 5 µM on SRC was below 50%; at RIPK2 it was 50 to 79%; on EPH-A6, 50 to 79%; at MER, below 50%; at PDGFR-b, below 50%. The “inhibition of kinase activity, P38-a” value on P38-a is listed as “E (category E is less than 50%)”. Moreover, the “inhibition of kinase activity, EPH-A5” value on EPH-A5 is on record as “E (category E is less than 50%)”.
For `CSc1nc(C(=O)Nc2ccc(Oc3ccnc(C(=O)NC4COC4)c3)c(F)c2)c(-c2ccc(F)c(F)c2)o1` [Compound 37], the inhibition at 5 µM at SRC, at RIPK2, at EPH-A6, at MER and on PDGFR-b was below 50% each time. The “inhibition of kinase activity, P38-a” value on P38-a is on record as “C (C=80%-89% at 5 um)”. Further, the “inhibition of kinase activity, EPH-A5” value at EPH-A5 is recorded as “E (category E is less than 50%)”.
In the case of `CNC(=O)c1cc(Oc2ccc(NC(=O)c3nc(OCC(F)(F)F)oc3-c3ccc(F)cc3)cc2F)ccn1` [Compound 38], the inhibition at 5 µM at SRC is 50 to 79%; at RIPK2, 50 to 79%; at EPH-A6, 80 to 89%; at MER, 80 to 89%; on PDGFR-b it was below 50%. Besides, the “inhibition of kinase activity, P38-a” value on P38-a is recorded as “D (category D for 50-79)”. For the same compound, the “inhibition of kinase activity, EPH-A5” value on EPH-A5 was “E (category E is less than 50%)”.
Take `COc1nc(C(=O)Nc2ccc(Oc3ccnc(C(=O)NC4COC4)c3)c(F)c2)c(-c2ccc(F)cc2)o1` [Compound 39]: the inhibition at 5 µM at SRC is below 50%; on RIPK2 it was 50 to 79%; at EPH-A6, 80 to 89%; at MER it was below 50%; on PDGFR-b it was below 50%. Also, the “inhibition of kinase activity, P38-a” value on P38-a was “D (category D for 50-79)”. Besides, at EPH-A5, the “inhibition of kinase activity, EPH-A5” value is recorded as “E (category E is less than 50%)”.
In the case of `CSc1nc(C(=O)Nc2ccc(Oc3ccnc(C(=O)NCC(F)(F)F)c3)c(F)c2)c(-c2ccc(F)cc2)o1` [Compound 40], the inhibition at 5 µM on SRC, on RIPK2, on EPH-A6, at MER and on PDGFR-b was below 50% in each case. Also, at P38-a, the “inhibition of kinase activity, P38-a” value is recorded as “D (category D for 50-79)”. Further, the “inhibition of kinase activity, EPH-A5” value on EPH-A5 is “E (category E is less than 50%)”.
On to `CSc1nc(C(=O)Nc2ccc(Oc3ccnc(C(=O)NCCN(C)C)c3)c(F)c2)c(-c2ccc(F)cc2)o1` [Compound 41], for which the inhibition at 5 µM was below 50% at SRC; 80 to 89% at RIPK2; 80 to 89% on EPH-A6; 50 to 79% at MER; below 50% at PDGFR-b. Moreover, the “inhibition of kinase activity, P38-a” value on P38-a was “A (A=95% or greater at 5 um)”. Also, the “inhibition of kinase activity, EPH-A5” value on EPH-A5 is given as “D (category D for 50-79)”.
On to `CSc1nc(C(=O)Nc2ccc(Oc3ccnc(C(=O)NC4CCN(C)CC4)c3)c(F)c2)c(-c2ccc(F)cc2)o1` [Compound 42], for which the inhibition at 5 µM at SRC was below 50%; at RIPK2, 50 to 79%; at EPH-A6, 50 to 79%; at MER, below 50%; on PDGFR-b it was below 50%. Further, the “inhibition of kinase activity, P38-a” value at P38-a is on record as “A (A=95% or greater at 5 um)”. Moreover, on EPH-A5, the “inhibition of kinase activity, EPH-A5” value is recorded as “E (category E is less than 50%)”.
Take `COc1nc(C(=O)Nc2ccc(Oc3ccnc(C(=O)NCC(F)(F)F)c3)c(F)c2)c(-c2ccc(F)cc2)o1` [Compound 43]: the inhibition at 5 µM at SRC, on RIPK2, on EPH-A6, on MER and on PDGFR-b was below 50% in each case. Further, on P38-a, the “inhibition of kinase activity, P38-a” value is given as “E (category E is less than 50%)”. In addition, on EPH-A5, the “inhibition of kinase activity, EPH-A5” value was “E (category E is less than 50%)”.

(Values after US11629143B2, “HipK4 inhibitors and uses thereof” (Vibliome Therapeutics, LLC, priority 2020, dated 2023).)
